Measured values from patent publication US11802120B2, “Fused cyclic urea derivatives as CRHR2 antagonist” (RaQualia Pharma Inc., priority 2018, dated 2023).

Molecular target: T1, human CRHR2-alpha (Homo sapiens, UniProt Q13324)
T1 sequence (Q13324 1-411): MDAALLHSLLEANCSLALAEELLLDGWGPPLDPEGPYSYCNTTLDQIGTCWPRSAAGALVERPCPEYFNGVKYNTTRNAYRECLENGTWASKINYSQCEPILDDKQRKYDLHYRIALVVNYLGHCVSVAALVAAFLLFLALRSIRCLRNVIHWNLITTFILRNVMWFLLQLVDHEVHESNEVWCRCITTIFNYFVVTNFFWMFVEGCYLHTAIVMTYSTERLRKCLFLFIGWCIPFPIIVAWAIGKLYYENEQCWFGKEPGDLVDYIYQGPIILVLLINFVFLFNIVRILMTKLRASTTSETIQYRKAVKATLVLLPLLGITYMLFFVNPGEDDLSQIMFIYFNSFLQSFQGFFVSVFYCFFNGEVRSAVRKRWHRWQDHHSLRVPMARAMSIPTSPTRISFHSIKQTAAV
Assay: cAMP functional assay for human CRHR2 (LANCE Ultra cAMP, TR-FRET)
Format: cell-based
Settings: CHO-K1 cells expressing human CRHR2-alpha, agonist human urocortin2 at EC80, cAMP; read-out: IC50 against CRHR2
How it was run: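 CHO-K1 cells stably expressing each receptor, serum-starved and cryopreserved, were preincubated with compound 30 min at 25° C in HBSS buffer with 0.5 mM IBMX, pH 7.4, then stimulated 30 min with EC80 agonist (urocortin2 for CRHR2, CRF for CRHR1). cAMP read by TR-FRET; IC50 from percent-inhibition curves.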

Q: Which IC50 does the source give for `O=C(N[C@H]1CC[C@H](Cn2c(=O)n(-c3ccc(NCC(F)(F)F)nc3)c3ccccc32)CC1)c1cc(Cl)cnc1C(F)F` [Example 463, 5-chloro-2-(difluoromethyl)-N-((1r,4r)-4-((2-oxo-3-(6-((2,2,2-trifluoroethyl)amino)pyridin-3-yl)-2,3-dihydro-1H-benzo[d]imidazol-1-yl)methyl)cyclohexyl)nicotinamide] here?
A: < 300 nM

Q: For `CNC(=O)c1ccc(-n2c(=O)n(C[C@H]3CC[C@H](NC(=O)c4cc(C(F)(F)F)ccc4Cl)CC3)c3ccccc32)cn1` [Example 490, 5-(3-(((1r,4r)-4-(2-chloro-5-(trifluoromethyl)benza-mido)cyclohexyl)methyl)-2-oxo-2,3-dihydro-1H-benzo[d]imidazol-1-yl)-N-methylpicolinamide], which IC50 is on record?
A: < 300 nM

Q: With `Cc1ncc(Cl)cc1C(=O)N[C@H]1CC[C@H](Cn2c(=O)n(-c3ccc4c(c3)nnn4C)c3ccccc32)CC1` [Example 255, 5-chloro-2-methyl-N-((1r,4r)-4-((3-(1-methyl-1H-benzo[d] [1,2,3]triazol-5-yl)-2-oxo-2,3-dihydro-1H-benzo[d]imidazol-1-yl)methyl)cyclohexyl) nicotinamide] as the molecule, how does the IC50 read?
A: < 300 nM

Q: For `Cc1ncc(Cl)cc1C(=O)N[C@H]1CC[C@H](Cn2c(=O)n(-c3ccc(-c4cnco4)cc3)c3ccccc32)CC1` [Example 450, 5-chloro-2-methyl-N-((1r,4r)-4-((3-(4-(oxazol-5-yl)phenyl)-2-oxo-2,3-dihydro-1H-benzo [d]imidazol-1-yl)methyl)cyclo-hexyl)nicotinamide], which IC50 is on record?
A: < 300 nM

Q: Which IC50 does the source give for `Cc1ncc(Cl)cc1C(=O)N[C@H]1CC[C@H](Cn2c(=O)n(-c3cnc4c(C)n[nH]c4c3)c3ccccc32)CC1` [Example 172, 5-chloro-2-methyl-N-((1r,4r)-4-((3-(3-methyl-1H-pyrazolo[4,3-b]pyridin-6-yl)-2-oxo-2,3-dihydro-1H-benzo[d]imidazol-1-yl)methyl)cyclohexyl)nicotinamide] here?
A: < 300 nM

Q: `O=C(N[C@H]1CC[C@H](Cn2c(=O)n(-c3ccc(N4CCC4=O)nc3)c3ccccc32)CC1)c1cc(Cl)cnc1C(F)F` [Example 501, 5-chloro-2-(difluoromethyl)-N-((1r,4r)-4-((2-oxo-3-(6-(2-oxoazetidin-1-yl)pyridin-3-yl)-2,3-dihydro-1H-benzo [d]imidazol-1-yl)methyl)cyclo-hexyl)nicotinamide] was tested. Which IC50 did it give?
A: < 300 nM

Q: With `Cc1ncc(Cl)cc1C(=O)N[C@H]1CC[C@H](Cn2c(=O)n(-c3cccc4c3CCC4)c3ccncc32)CC1` [Example 238, 5-chloro-N-((1r,4r)-4-((1-(2,3-dihydro-1H-inden-4-yl)-2-oxo-1H-imidazo[4,5-c]pyridin-3(2H)-yl)methyl)cyclohexyl)-2-methylnicotinamide] as the molecule, how does the IC50 read?
A: < 300 nM

Q: With `Cc1ncc(Cl)cc1C(=O)N[C@H]1CC[C@H](Cn2c(=O)n(-c3ccc(N4CCC(O)CC4)nc3)c3ccccc32)CC1` [Example 96, 5-chloro-N-((1r,4r)-4-((3-(6-(4-hydroxypiperidin-1-yl)pyridin-3-yl)-2-oxo-2,3-dihydro-1H-benzo[d]imidazol-1-yl)methyl)cyclohexyl)-2-methylnicotinamide] as the molecule, how does the IC50 read?
A: < 300 nM

Q: For `Cn1ccc(-c2cncc(-n3c(=O)n(C[C@H]4CC[C@H](NC(=O)c5cc(Cl)cnc5C(F)F)CC4)c4ccccc43)c2)n1` [Example 701, 5-chloro-2-(difluoromethyl)-N-((1r,4r)-4-((3-(5-(1-methyl-1H-pyrazol-3-yl)pyridin-3-yl)-2-oxo-2,3-dihydro-1H-benzo [d]imidazol-1-yl)methyl)cyclo-hexyl)nicotinamide], which IC50 is on record?
A: < 300 nM

Q: How did the IC50 turn out when `CNC(=O)c1ccc(-n2c(=O)n(C[C@H]3CC[C@H](NC(=O)c4cc(Cl)cnc4CCOC)CC3)c3ccccc32)cn1` [Example 321, 5-(3-(((1r,4r)-4-(5-chloro-2-(2-methoxyethyl)nico-tinamido)cyclohexyl)methyl)-2-oxo-2,3-dihydro-1H-benzo [d]imidazol-1-yl)-N-methylpicolinamide] was run?
A: < 300 nM

Q: For `Cc1ncc(Cl)cc1C(=O)N[C@H]1CC[C@H](Cn2c(=O)n(-c3ccc(C(=O)Nc4ccccn4)nc3)c3ccccc32)CC1` [Example 174, 5-(3-(((1r,4r)-4-(5-chloro-2-methylnicotinamido)cyclo-hexyl)methyl)-2-oxo-2,3-dihydro-1H-benzo[d]imidazol-1-yl)-N-(pyridin-2-yl) picolinamide], which IC50 is on record?
A: < 300 nM

Q: Which IC50 does the source give for `N#Cc1cccnc1-n1c(=O)n(C[C@H]2CC[C@H](NC(=O)c3cc(Cl)cnc3C(F)(F)F)CC2)c2ccccc21` [Example 312, 5-chloro-N-((1r,4r)-4-((3-(3-cyanopyridin-2-yl)-2-oxo-2,3-dihydro-1H-benzo[d]imidazol-1-yl)methyl)cyclo-hexyl)-2-(trifluoromethyl) nicotinamide] here?
A: < 300 nM

Q: With `O=C(N[C@H]1CC[C@H](Cn2c(=O)n(-c3cncc(-n4cccn4)c3)c3ccccc32)CC1)c1cc(Cl)cnc1C(F)F` [Example 703, N-((1r,4r)-4-((3-(5-(1H-pyrazol-1-yl)pyridin-3-yl)-2-oxo-2,3-dihydro-1H-benzo [d]imidazol-1-yl)methyl)cyclohexyl)-5-chloro-2-(difluoromethyl)nicotinamide] as the molecule, how does the IC50 read?
A: < 300 nM

Q: `CCn1nc2ccccc2c1C(=O)N[C@H]1CC[C@H](Cn2c(=O)n(-c3ccc(OC)cc3)c3ccccc32)CC1` [Example 37, 2-ethyl-N-((1r,4r)-4-((3-(4-methoxyphenyl)-2-oxo-2,3-dihydro-1H-benzo[d]imidazol-1-yl)methyl)cyclohexyl)-2H-indazole-3-carboxamide] was tested. Which IC50 did it give?
A: < 300 nM

Q: How did the IC50 turn out when `CNC(=O)c1ccc(-n2c(=O)n(C[C@H]3CC[C@H](NC(=O)c4cc(C(F)(F)F)cnc4C)CC3)c3ccccc32)cn1` [Example 491, N-methyl-5-(3-(((1r,4r)-4-(2-methyl-5-(trifluoromethyl)nicotinamido)cyclohexyl)methyl)-2-oxo-2,3-dihydro-1H-benzo[d]imidazol-1-yl) picolinamide] was run?
A: < 300 nM

Q: For `O=C(N[C@H]1CC[C@H](Cn2c(=O)n(-c3ccc(-n4ccnc4)cc3)c3ccccc32)CC1)c1cc(Cl)cnc1C(F)F` [Example 569, N-((1r,4r)-4-((3-(4-(1H-imidazol-1-yl)phenyl)-2-oxo-2,3-dihydro-1H-benzo[d]imidazol-1-yl)methyl)cyclo-hexyl)-5-chloro-2-(difluoro-methyl)nicotinamide], which IC50 is on record?
A: < 300 nM

Q: Which IC50 does the source give for `Cc1ncc(Cl)cc1C(=O)N[C@H]1CC[C@H](Cn2c(=O)n(-c3ccc(-c4ccn[nH]4)cc3)c3ccccc32)CC1` [Example 469, N-((1r,4r)-4-((3-(4-(1H-pyrazol-5-yl)phenyl)-2-oxo-2,3-dihydro-1H-benzo[d]imidazol-1-yl)methyl)cyclo-hexyl)-5-chloro-2-methylnicotinamide] here?
A: < 300 nM

Q: With `Cc1ncc(Cl)cc1C(=O)N[C@H]1CC[C@H](Cn2c(=O)n(-c3cccnc3C#N)c3ccccc32)CC1` [Example 239, 5-chloro-N-((1r,4r)-4-((3-(2-cyanopyridin-3-yl)-2-oxo-2,3-dihydro-1H-benzo[d]imidazol-1-yl)methyl)cyclohexyl)-2-methylnicotinamide] as the molecule, how does the IC50 read?
A: < 300 nM

Q: How did the IC50 turn out when `Cc1ncc(Cl)cc1C(=O)N[C@H]1CC[C@H](Cn2c(=O)n(-c3ccc4[nH]nc(-c5ccccc5)c4c3)c3ccccc32)CC1` [Example 348, 5-chloro-2-methyl-N-((1r,4r)-4-((2-oxo-3-(3-phenyl-1H-indazol-5-yl)-2,3-dihydro-1H-benzo[d]imidazol-1-yl)methyl)cyclohexyl)nicotinamide] was run?
A: < 300 nM

Q: How did the IC50 turn out when `O=C(N[C@H]1CC[C@H](Cn2c(=O)n(-c3cccc4cccnc34)c3ccccc32)CC1)c1cc(Cl)cnc1C(F)F` [Example 419, 5-chloro-2-(difluoromethyl)-N-((1r,4r)-4-((2-oxo-3-(quinolin-8-yl)-2,3-dihydro-1H-benzo [d]imidazol-1-yl)methyl)cyclo-hexyl)nicotinamide] was run?
A: < 300 nM

Q: For `Cc1ncc(Cl)cc1C(=O)N[C@H]1CC[C@H](Cn2c(=O)n(-c3ccc(Br)cc3C#N)c3ccccc32)CC1` [Example 204, N-((1r,4r)-4-((3-(4-bromo-2-cyanophenyl)-2-oxo-2,3-dihydro-1H-benzo[d]imidazol-1-yl)methyl)cyclo-hexyl)-5-chloro-2-methylnicotinamide], which IC50 is on record?
A: < 300 nM

Q: `O=C(NCC(F)F)c1ccc(-n2c(=O)n(C[C@H]3CC[C@H](NC(=O)c4cc(Cl)cnc4C(F)(F)F)CC3)c3ccccc32)cn1` [Example 411, 5-(3-(((1r,4r)-4-(5-chloro-2-(trifluoromethyl)nicotinamido)cyclohexyl)methyl)-2-oxo-2,3-dihydro-1H-benzo[d]imidazol-1-yl)-N-(2,2-difluoroethyl) picolinamide] was tested. Which IC50 did it give?
A: < 300 nM

Q: How did the IC50 turn out when `Cc1ncc(Cl)cc1C(=O)N[C@H]1CC[C@H](Cn2c(=O)n(-c3ccc4c(C(N)=O)noc4c3)c3ccccc32)CC1` [Example 243, 6-(3-(((1r,4r)-4-(5-chloro-2-methylnicotinamido)cyclohexyl)methyl)-2-oxo-2,3-dihydro-1H-benzo[d]imidazol-1-yl)benzo[d]isoxazole-3-carboxamide] was run?
A: < 300 nM

Q: With `Cc1ncc(Cl)cc1C(=O)N[C@H]1CC[C@H](Cn2c(=O)n(-c3cccc(-c4cn[nH]c4)c3)c3ccccc32)CC1` [Example 696, N-((1r,4r)-4-((3-(3-(1H-pyrazol-4-yl)phenyl)-2-oxo-2,3-dihydro-1H-benzo[d]imidazol-1-yl)methyl)cyclohexyl)-5-chloro-2-methylnicotinamide] as the molecule, how does the IC50 read?
A: < 300 nM
